We go through 46 compounds from ChEMBL document CHEMBL3421550, “Diphenylpyrazoles as replication protein a inhibitors” (ACS Med Chem Lett, 2015).

Where only a bound is given, the exact number is not on record here.

Data set [1] addresses T1, Replication protein A 70 kDa DNA-binding subunit (Homo sapiens, UniProt P27694).
Description: Binding affinity to RPA70N protein (unknown origin) incubated for 1 hr using FITC-ATRIP/FITC-ATRIP2 peptide probe by fluorescence polarization anisotropy assay
The target of data set [2] is T1, Replication protein A 70 kDa DNA-binding subunit. The conditions noted are these: at 500 µM.
Description: Displacement of FITC-ATRIP/FITC-ATRIP2 peptide probe from RPA70N protein (unknown origin) at 500 uM incubated for 1 hr by fluorescence polarization anisotropy assay
The target is the same in data set [3]. As to the kind of experiment: Binding affinity to RPA70N protein (unknown origin) by HSQC NMR-based titration method.
Data set [4] is described as follows: Intrinsic permeability in human Caco2 cells. The note with it: Caco-2, read-out: permeability. The class given is ADME, cell-based. (In general: Passage across Caco-2 layers is used to estimate intestinal permeability.)

T1 sequence (P27694 whole entry): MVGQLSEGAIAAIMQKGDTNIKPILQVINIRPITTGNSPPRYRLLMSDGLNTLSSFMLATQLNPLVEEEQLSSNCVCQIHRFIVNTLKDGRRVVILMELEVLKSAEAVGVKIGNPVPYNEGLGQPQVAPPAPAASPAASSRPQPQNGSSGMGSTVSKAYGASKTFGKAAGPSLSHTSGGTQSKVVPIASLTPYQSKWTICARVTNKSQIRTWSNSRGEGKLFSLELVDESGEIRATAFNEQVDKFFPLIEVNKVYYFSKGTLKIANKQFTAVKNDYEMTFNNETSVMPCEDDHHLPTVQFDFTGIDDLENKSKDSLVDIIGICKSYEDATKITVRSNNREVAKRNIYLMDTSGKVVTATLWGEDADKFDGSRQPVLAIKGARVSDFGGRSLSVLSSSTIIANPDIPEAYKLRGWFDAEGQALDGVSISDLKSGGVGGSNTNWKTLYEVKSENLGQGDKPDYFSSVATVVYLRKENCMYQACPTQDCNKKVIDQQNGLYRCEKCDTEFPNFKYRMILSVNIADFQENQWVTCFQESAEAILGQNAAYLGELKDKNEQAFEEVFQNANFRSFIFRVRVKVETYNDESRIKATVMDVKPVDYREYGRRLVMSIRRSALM

As usually defined, the Kd is a measure of binding affinity in units of concentration. A higher Kd goes with weaker binding. The compound `COc1ccc(-c2cc(C(=O)O)nn2-c2ccc(Cl)c(Cl)c2)cc1` gave a dissociation constant (Kd) in data set [1] of 79 µM.

For orientation: inhibition means the percentage by which the read-out fell short of the control. Lower therefore signals a weak effect. `COc1ccc(-c2cc(C(=O)O)nn2C2CCCCC2)cc1`: the Kd in data set [1] was over 500 µM. This compound came in with an inhibition in data set [2] of 9%.

Take `O=C(NCc1ccccc1)c1ccc(-c2cc(C(=O)O)nn2-c2ccc(Cl)c(Cl)c2)cc1`: the Kd in data set [1] turned out to be 83 µM.

For the compound `O=C(O)c1cc(-c2ccc(CNC(=S)c3ccc(-c4nc(=O)o[nH]4)cc3)cc2)n(-c2ccc(Cl)c(Cl)c2)n1`, the Kd in data set [1] was 9.3 µM.

`O=C(O)c1cc(-c2ccc(O)cc2)n(-c2ccc(Cl)c(Cl)c2)n1` displayed a Kd in data set [1] of 104 µM.

`O=C(O)c1cccc(-c2cc(C(=O)O)nn2-c2ccc(Cl)c(Cl)c2)c1` registered a Kd in data set [1] of 129 µM.

`O=C(O)c1cc(-c2ccc(CNC(=S)c3ccc(-c4nnn[nH]4)cc3)cc2)n(-c2ccc(Cl)c(Cl)c2)n1` showed a Kd in data set [1] of 2.2 µM.

In the case of `COc1ccc(-c2cc(C(=O)O)nn2-c2ccc(C)cc2)cc1`, the Kd in data set [1] is over 500 µM. The compound further displayed an inhibition in data set [2] of 15%.

For the compound `O=C(NCc1ccc(-c2ccc(C(=O)O)o2)cc1)c1cccc(-c2cc(C(=O)O)nn2-c2ccc(Cl)c(Cl)c2)c1`, the Kd in data set [1] is 22 µM.

Consider `NS(=O)(=O)c1ccc(C(=S)NCc2ccc(-c3cc(C(=O)O)nn3-c3ccc(Cl)c(Cl)c3)cc2)cc1`, for which, in data set [1], the affinity, expressed as Kd, was 34 µM.

Regarding `COc1ccc(-n2nc(C(=O)O)cc2-c2ccccc2)cc1`, the Kd in data set [1] is over 500 µM; in data set [3], 895 µM. Further, the inhibition in data set [2] stood at 18%.

Consider `O=C(O)c1ccc(-c2ccc(C(=S)NCc3ccc(-c4ccnn4-c4ccc(Cl)c(Cl)c4)cc3)c(Cl)c2)o1`, for which the Papp in data set [4] came out at 145 nm/s. Moreover, in data set [1], binding was put at a Kd of 1.7 µM.

As for `O=C(O)c1cc(-c2ccco2)n(-c2ccc(Cl)c(Cl)c2)n1`, in data set [1], the dissociation constant Kd was over 500 µM.

In turn, `CC(=O)N(Cc1ccc(-c2ccc(C(=O)O)o2)cc1)Cc1cccc(-c2cc(C(=O)O)nn2-c2ccc(Cl)c(Cl)c2)c1` registered a Kd in data set [1] of 8.2 µM.

The compound `Cc1ccc(-c2cc(C(=O)O)nn2-c2ccc(Cl)c(Cl)c2)cc1` had a Kd in data set [1] of 72 µM.

`O=C(O)c1cc(-c2ccc(C(=S)NCc3cccc(-c4ccc(C(=O)O)o4)c3)cc2)n(-c2ccc(Cl)c(Cl)c2)n1` gave a Kd in data set [1] of 2.5 µM.

The compound `O=C(O)c1cc(-c2ccc(CNC(=S)c3ccc(-c4ccc(C(=O)O)o4)cc3)cc2)n(-c2ccc(Cl)c(Cl)c2)n1` came in with a Kd in data set [1] of 0.55 µM.

Compound `COc1ccc(-c2cc(C(=O)O)nn2-c2ccc(Cl)cc2)cc1` displayed a dissociation constant (Kd) in data set [1] of over 500 µM. Further, in data set [2], the inhibition stood at 19%.

In data set [1], `COc1ccc(-c2cc(C(=O)O)nn2-c2cccc(Cl)c2)cc1` gave a Kd of over 500 µM. The compound also gave an inhibition in data set [2] of 35%.

Take `O=C(NCc1ccc(-c2cc(C(=O)O)nn2-c2ccc(Cl)c(Cl)c2)cc1)c1ccccc1`: the dissociation constant Kd in data set [1] is 90 µM.

`COc1ccc(CNC(=O)c2ccc(-c3cc(C(=O)O)nn3-c3ccc(Cl)c(Cl)c3)cc2)cc1` registered a Kd in data set [1] of 45 µM.

The compound `COc1ccc(-c2cc(C(=O)O)nn2-c2cccc(C)c2)cc1` displayed a Kd in data set [1] of over 500 µM. In data set [2], this compound came in with an inhibition of 20%.

In turn, `Nc1ccc(-c2cc(C(=O)O)nn2-c2ccc(Cl)c(Cl)c2)cc1` gave a dissociation constant (Kd) in data set [1] of 227 µM.

The compound `O=C(O)c1cc(-c2ccc(CN3CCc4cc(-c5ccc(C(=O)O)o5)ccc4C3=S)cc2)n(-c2ccc(Cl)c(Cl)c2)n1` came in with a Kd in data set [1] of 0.54 µM.

In data set [1], `O=C(O)c1cc(-c2ccc(C(=S)NCc3ccc(-c4ccc(C(=O)O)o4)cc3)cc2)n(-c2ccc(Cl)c(Cl)c2)n1` displayed a Kd of 1.5 µM.

In turn, `N#Cc1ccc(-c2cc(C(=O)O)nn2-c2ccc(Cl)c(Cl)c2)cc1` returned a Kd in data set [1] of 310 µM.

`O=C(O)c1cc(-c2ccc(CNS(=O)(=O)c3ccc(OC(F)(F)F)cc3)cc2)n(-c2ccc(Cl)c(Cl)c2)n1` displayed a Kd in data set [1] of 56 µM.

As for `O=C(NCc1ccc(-c2cc(C(=O)O)nn2-c2ccc(Cl)c(Cl)c2)cc1)c1ccc(Br)cc1`, the Kd in data set [1] was 35 µM.

For the compound `Cc1cccc(-c2cc(C(=O)O)nn2-c2ccc(Cl)c(Cl)c2)c1`, binding in data set [1] was put at a Kd of 90 µM.

As to `O=C(NCc1ccc(-c2ccc(C(=O)O)o2)cc1Cl)c1ccc(-c2cc(C(=O)O)nn2-c2ccc(Cl)c(Cl)c2)cc1`, the Kd in data set [1] was determined as 9.4 µM.

In turn, `COc1ccc(C(=O)NCc2ccc(-c3cc(C(=O)O)nn3-c3ccc(Cl)c(Cl)c3)cc2)cc1` had a Kd in data set [1] of 72 µM.

In turn, `O=C(O)c1cc(Cc2ccc(O)cc2)n(-c2ccc(Cl)c(Cl)c2)n1` came in with a dissociation constant Kd in data set [1] of over 500 µM.

For the compound `O=C(O)c1cc(-c2ccc(C(=S)NCc3ccccc3)cc2)n(-c2ccc(Cl)c(Cl)c2)n1`, the Kd in data set [1] amounted to 18 µM.

Consider `O=C(O)c1cc(-c2ccccc2)n(-c2ccccc2)n1`, for which, in data set [3], binding was characterised by a dissociation constant (Kd) of 1150 µM.

In turn, `COc1ccc(-c2cc(C(=O)O)nn2-c2cccc(Br)c2)cc1` returned a Kd in data set [1] of 140 µM.

Consider `NCc1ccc(-c2cc(C(=O)O)nn2-c2ccc(Cl)c(Cl)c2)cc1`, for which the Kd in data set [1] is over 500 µM.

`COc1ccc(-c2cc(C(=O)O)nn2-c2ccc(Br)cc2)cc1` had a Kd in data set [1] of over 500 µM. Further, in data set [2], the inhibition was found to be 24%.

As for `O=C(O)c1cc(-c2ccc(C(=S)NCc3ccc(-c4ccc(C(=O)O)o4)cc3Cl)cc2)n(-c2ccc(Cl)c(Cl)c2)n1`, in data set [1], binding was put at a Kd of 0.48 µM.

Turning to `O=C(O)c1ccc(-c2cc(C(=O)O)nn2-c2ccc(Cl)c(Cl)c2)cc1`, binding in data set [1] was put at a Kd of 59 µM.

`O=C(O)c1cc(-c2ccc(CNS(=O)(=O)c3ccccc3)cc2)n(-c2ccc(Cl)c(Cl)c2)n1` came in with a Kd in data set [1] of 70 µM.

With `COc1ccc(CNC(=S)c2ccc(-c3cc(C(=O)O)nn3-c3ccc(Cl)c(Cl)c3)cc2)cc1`, binding in data set [1] was characterised by a dissociation constant (Kd) of 23 µM.

In turn, `O=C(O)c1cc(-c2ccc(CNC(=S)c3ccc(Br)cc3)cc2)n(-c2ccc(Cl)c(Cl)c2)n1` came in with a Kd in data set [1] of 15 µM.

As for `Cc1cccc(-n2nc(C(=O)O)cc2-c2ccccc2)c1`, the Kd was over 500 µM in data set [1] and 580 µM in data set [3].

For `O=C(O)c1cc(-c2ccc(Cl)cc2)n(-c2ccc(Cl)c(Cl)c2)n1`, the Kd was 67 µM in data set [1] and 54 µM in data set [3].

`O=C(O)c1cc(-c2cccc(CNCc3ccc(-c4ccc(C(=O)O)o4)cc3)c2)n(-c2ccc(Cl)c(Cl)c2)n1` gave a dissociation constant (Kd) in data set [1] of 57 µM.

For `O=C(O)c1cc(-c2ccccc2)n(-c2ccc(Cl)c(Cl)c2)n1`, the Kd in data set [1] amounted to 123 µM.
